{"source": "patent US10350231B2", "about": "“Use of cladribine for treating autoimmune inflammatory disease” (Chord Therapeutics S.a.r.l., priority 2014, dated 2019)", "key": {"[1]": {"system": "neuromyelitis optica (NMO) patient", "assay": "Case report of off-label treatment of NMO patient with cladribine", "type": "in vivo, human", "procedure": "A person presented with acute visual symptoms and optic neuritis with normal head MRI. Episodic visual symptoms recurred with increasing severity up to complete blindness in one eye and episodes of deterioration in the other. Some response to methylprednisolone was noted. The diagnostic test for NMO-IgG (ELISA) was positive and brain MRI had no focal lesions.\n20 mg of cladribine were administered subcutaneously to the patient on each of five dosing days, with one month or more separating the dosing days. On a dosing day, two vials were used each containing 10 ml of a solution of cladribine as shown in Example 2. Eight subcutaneous sites were used, each receiving an injection of 2.5 ml.\nAt the end of nine months blindness was complete bilaterally but motor and sensory functions were normal. […] After 2 years the patient was admitted with motor, sensory and autonomic symptoms. Based on new symptoms, abnormalities on spinal cord MRI and the previous NMO-IgG test the diagnosis was confirmed as neuromyelitis optica. After 3 months there was partial improvement but remaining mild paraparesis.\nPrior to cladribine treatment this patient experienced five episodes of worsening over four years (estimated annual relapse rate of 1.46). The intervening remission periods were 13, 15, 6 and 6 months. From initiation of an 8-month course of cladribine treatment they experienced 34 months of stable condition without reported relapses, followed by subsequent deterioration and other treatments."}, "NMO patients": {"system": "NMO patients", "details": "cited from earlier work"}, "[2]": {"system": "T lymphocytes from NMO patients", "assay": "Stimulated (anti-CD3/anti-CD28) cytokine secretion by T lymphocytes from NMO patients", "type": "cell-based, human", "details": "cladribine 1×10^−9M to 1×10^−4M, supernatants e.g. 24 hours, compared with healthy donors", "source_text": "Using the methods described in Laugel B. et al., J. Neuroimmunol.; (2011); 240-241; 52-57 peripheral blood mononuclear cells (PBMCs) are first isolated from blood obtained from healthy donors and NMO patients, for example by ficoll gradient centrifugation. T-lymphocytes are further purified from these PBMCs, by for example magnetic bead separation using a pan-T cell reagents, or CD4 reagents. The purified lymphocytes are maintained in culture using standard methods and reagents, for example RPMI-1640 growth medium.\nTo determine the effect of cladribine on stimulated cytokine secretion by T lymphocytes from NMO patients, identical numbers of purified lymphocytes purified from both healthy donor and NMO patients are pre-incubated for less than one hour in medium containing one of a number of cladribine concentrations, ranging from for example one nanomolar to one hundred micromolar (1×10^−9M to 1×10^−4M), or without added cladribine. Cells are then transferred, with their cladribine-containing or control medium, to the wells of culture plates coated with anti-CD3 antibody, and soluble anti-CD28 antibody is added. Secreted cytokines in culture supernatants collected after, for example, 24 hours, are determined by one of several standard methods including bead-based cytometric cytokine assay and enzyme-linked immunosorbent assay. […]"}, "human lymphocytes": {"system": "human lymphocytes", "details": "phosphorylation by CK blocked, lymphocyte death does not occur; cited from earlier work"}, "[3]": {"system": "IgM associated inflammatory peripheral neuropathy patient", "details": "intravenous infusion, two courses of cladribine, cited from earlier work"}, "[4]": {"target": "A2A (adenosine receptor class 2a) (Homo sapiens, UniProt P29274)", "sequence (P29274 whole entry)": "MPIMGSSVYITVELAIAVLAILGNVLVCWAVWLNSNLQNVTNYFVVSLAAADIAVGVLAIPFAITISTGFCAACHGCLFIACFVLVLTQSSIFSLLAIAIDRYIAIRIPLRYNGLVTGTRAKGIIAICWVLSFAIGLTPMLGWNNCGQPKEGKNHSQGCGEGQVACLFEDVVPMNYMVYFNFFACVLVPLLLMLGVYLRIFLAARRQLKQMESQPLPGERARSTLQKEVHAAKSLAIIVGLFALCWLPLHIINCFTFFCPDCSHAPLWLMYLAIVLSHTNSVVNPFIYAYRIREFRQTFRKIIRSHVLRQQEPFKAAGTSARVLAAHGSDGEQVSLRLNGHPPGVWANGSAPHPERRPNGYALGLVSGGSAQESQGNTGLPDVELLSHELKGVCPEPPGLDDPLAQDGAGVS", "details": "cited from earlier work"}, "[5]": {"system": "T-lymphocytes from NMO patients", "assay": "In vitro viability response of lymphocytes derived from NMO patients to cladribine", "type": "cell-based, human", "details": "cladribine 1×10^−9M to 1×10^−4M, e.g. four days; with or without anti-CD3/anti-CD28; compared with healthy donors", "description": "Using the methods described in Laugel B. et al., J. Neuroimmunol.; (2011); 240-241; 52-57 peripheral blood mononuclear cells (PBMCs) are first isolated from blood obtained from healthy donors and NMO patients, for example by ficoll gradient centrifugation. T-lymphocytes are further purified from these PBMCs, by for example magnetic bead separation using a pan-T cell reagents, or CD4 reagents. […] To determine the cells' viability response to cladribine, identical numbers of lymphocytes purified from both healthy donor and NMO patients are cultured with one of a number of cladribine concentrations, ranging from for example one nanomolar to one hundred micromolar (1×10^−9M to 1×10^−4M), or without any cladribine. After a period of several days, for example four days, the fraction of live cells is determined, for example by annexin V staining or trypan blue staining. This experiment is done either under stimulated conditions (that is, with the addition of anti-CD3 and anti-CD28 antibodies in all cultures, as below) or without these stimulating antibodies."}}, "note": "“Also recorded” adds a separate entry of the source."}
{"compound": "O=C1c2c(O)ccc(O)c2C(=O)c2c(NCCNCCO)ccc(NCCNCCO)c21", "note": "[mitoxantrone]", "values": [{"measurement": "disease course under mitoxantrone", "setting": "[1]; same patient, after relapse following cladribine, impaired walking, neurogenic bladder, blindness", "result": "progressive deterioration"}]}
{"compound": "Glatiramer acetate", "values": [{"measurement": "effect on NMO", "setting": "NMO patients", "result": "has not been found to be effective"}]}
{"compound": "Nc1nc(Cl)nc2c1ncn2[C@H]1C[C@H](O)[C@@H](CO)O1", "note": "[cladribine, 2-chloro-2′-deoxyadenosine]", "values": [{"measurement": "secretion of cytokines by lymphocytes from NMO patients", "setting": "[2]", "result": "inhibited by cladribine in a manner and to a degree similar to the inhibition seen in lymphocytes from healthy donors"}, {"measurement": "induced cytokine production", "setting": "human lymphocytes", "result": "decreased"}, {"measurement": "IgM antibody levels", "setting": "[3]", "result": "IgM levels declined slowly over a period of more than one year"}, {"measurement": "symptoms", "setting": "[3]; maintained for several years", "result": "symptomatic improvement"}, {"measurement": "affinity at A2A receptors", "setting": "[4]", "result": "binds with high affinity"}, {"measurement": "disease course after cladribine treatment", "setting": "[1]; one NMO patient, single course 100 mg s.c., no further immunosuppressant treatment", "result": "two years without noted deterioration; also recorded: stabilization of the disease course for over two years"}, {"measurement": "adverse events attributed to cladribine", "setting": "[1]; one NMO patient, total 100 mg cladribine s.c.", "result": "No adverse events attributed to cladribine were reported"}, {"measurement": "stable condition without reported relapses", "setting": "[1]; one NMO patient, total 100 mg cladribine s.c., from initiation of an 8-month course", "result": 34, "unit": "months"}, {"measurement": "period of beneficial effects on the disease without retreatment", "setting": "[1]; short period of treatment (several weeks)", "result": "over 18 months"}, {"measurement": "viability (fraction of live cells) of lymphocytes from NMO patients", "setting": "[5]", "result": "die over several days in a manner and to an extent similar to those purified from healthy donors"}]}
